Experiments:
[1] = Chronic toxicity of suppositories: indexes of peripheral blood; type: in vivo, rats; design: Thrombocytes: unit not given here; settings: male rats, suppositories rectally; for Basophiles / Juveniles: 1 month/2 months (one value given), control 0
[2] = tested on: synthase of nitrogen oxide (NOC); experiment: Morphine abstinence model: activity of synthase of nitrogen oxide (NOC), radiometric [3H]L-citrulline method; type: in vivo, rats Wistar; settings: 20.0 mg/kg intramuscularly; for Activity of NOC: Mesencephalon: control 2.18 ± 0.09; for Activity of NOC: Hypothalamus: control 5.37 ± 0.20
[3] = Morphine abstinence model: indicator enzymes ALT, AST, γ-GTP in blood plasma; settings: 20.0 mg/kg intramuscularly three times a day; for γ-GTP in blood plasma, Ci: control 6.261 ± 1.80; for ALT in blood plasma, Ci: control 106.76 ± 111.35; for AST in blood plasma, Ci: control 179.881 ± 11.94
Method: The experiments were carried out on rats in series of 7 animals on each compound according to the invention. Non-morphinized animal with not administered with compounds according to the invention were used as a control group. […] Then the rats were decapitated, the blood from somnolent arteries was collected in test tubes with solution EDTA as an anticoagulant, centrifuged at 1500 g for 15 minutes at 4° C.
To estimate possible hepatoprotective action of the compounds according to the invention under conditions of development of an oxidizing stress in the liver cells, effect of these compounds on the most important biochemical blood indexes, in particular, on the content in blood plasma of indicator enzyme of aspartateaminotransferase (AST), alanineaminotransferase (ALT), γ-glutamiletranspeptidase (γ-GTP) was investigated. The content of enzymes was estimated by their catalyzing activity in blood plasma.
The activity of AST, ALT and γ-GTP was determined by means of diagnostic sets DiaSys, Germany.

For `O=c1[nH][nH]c(=O)c2c(Br)ncnc12.[K]` [Compound 37, potassium salt of 4-bromine-pyrimido[4,5-D]-6H-pyridazine-5,8-dione], the Basophiles ([1]; 50 mg/kg) was 0%, the Juveniles ([1]; 50 mg/kg) was 0% and the Stab neutrophil ([1]; 50 mg/kg, 1 month, control 0.8 ± 0.4) was 1.3 ± 0.5%. The REE ([1]; 50 mg/kg, 1 month, control 2.2 ± 0.4) was 1.8 ± 0.3 mm/h, the Reticulocytes ([1]; 50 mg/kg, 1 month, control 2.8%0.3) was 2.6 ± 0.1% and the Eosinophiles ([1]; 50 mg/kg, 1 month, control 4.0 + 0.3) was 3.8 ± 0.8%. For the same molecule, the Erythrocytes ([1]; 50 mg/kg, 1 month, control 5.6 ± 0.1) was 5.6 ± 0.2 mln/mm^3, the Hemoglobin ([1]; 50 mg/kg, 1 month, control 10.5 ± 0.2) was 10.5 ± 0.1 mmol/L and the Leukocyte ([1]; 50 mg/kg, 1 month, control 17.4 ± 1.3) was 14.9 ± 1.5 thousand/mm^3. For the same molecule, the Haematocrite ([1]; 50 mg/kg, 1 month, control 45.9 ± 1.7) was 47.8 ± 1.4%, the “Average volume of erythrocytes” value ([1]; 50 mg/kg, 1 month, control 81.4 ± 1.7) was 83.9 ± 1.7 Mkm^3 and the “Coagulation, time” value ([1]; 50 mg/kg, 1 month, control 152 ± 10.2) was 151 ± 13 s. The Thrombocytes ([1]; 50 mg/kg, 1 month, control 707 ± 23) was 675 ± 22, the REE ([1]; 50 mg/kg, 2 months, control 1.4 ± 0.2) was 1.6 ± 0.3 mm/h and the Stab neutrophil ([1]; 50 mg/kg, 2 months, control 2.4 ± 0.4) was 1.9 ± 0.4%. The Reticulocytes ([1]; 50 mg/kg, 2 months, control 2.9 ± 0.2) was 3.1 ± 0.1%, the Eosinophiles ([1]; 50 mg/kg, 2 months, control 4.4 + 1.2) was 4.2 ± 0.3% and the Erythrocytes ([1]; 50 mg/kg, 2 months, control 6.1 ± 0.1) was 6.2 ± 0.1 mln/mm^3. The Hemoglobin ([1]; 50 mg/kg, 2 months, control 11.4 ± 0.2) was 11.0 ± 0.1 mmol/L, the Leukocyte ([1]; 50 mg/kg, 2 months, control 19.1 ± 1.9) was 16.7 ± 1.2 thousand/mm^3 and the Haematocrite ([1]; 50 mg/kg, 2 months, control 45.9 ± 1.8) was 47.5 ± 1.2%. For the same molecule, the “Average volume of erythrocytes” value ([1]; 50 mg/kg, 2 months, control 74.6 + 1.9) was 78.5 ± 1.4 Mkm^3, the “Coagulation, time” value ([1]; 50 mg/kg, 2 months, control 316 ± 8) was 319 ± 12 s and the Thrombocytes ([1]; 50 mg/kg, 2 months, control 593 ± 14) was 609 ± 18. It also gave a Basophiles ([1]; 500 mg/kg) of 0%, a Juveniles ([1]; 500 mg/kg) of 0% and a Stab neutrophil ([1]; 500 mg/kg, 1 month, control 0.8 ± 0.4) of 0.9 ± 0.4%. It also gave an REE ([1]; 500 mg/kg, 1 month, control 2.2 ± 0.4) of 2.2 ± 0.3 mm/h, a Reticulocytes ([1]; 500 mg/kg, 1 month, control 2.8%0.3) of 3.0 ± 0.2% and an Eosinophiles ([1]; 500 mg/kg, 1 month, control 4.0 + 0.3) of 3.5 ± 1.0%. It also gave an Erythrocytes ([1]; 500 mg/kg, 1 month, control 5.6 ± 0.1) of 5.7 ± 0.1 mln/mm^3, a Hemoglobin ([1]; 500 mg/kg, 1 month, control 10.5 ± 0.2) of 10.6 ± 0.1 mmol/L and a Leukocyte ([1]; 500 mg/kg, 1 month, control 17.4 ± 1.3) of 17.1 ± 0.9 thousand/mm^3. For the same molecule, the Haematocrite ([1]; 500 mg/kg, 1 month, control 45.9 ± 1.7) was 47.9 ± 1.8%, the “Average volume of erythrocytes” value ([1]; 500 mg/kg, 1 month, control 81.4 ± 1.7) was 82.3 ± 1.5 Mkm^3 and the “Coagulation, time” value ([1]; 500 mg/kg, 1 month, control 152 ± 10.2) was 157 ± 14 s. It also gave an REE ([1]; 500 mg/kg, 2 months, control 1.4 ± 0.2) of 2.0 ± 0.1 mm/h, a Stab neutrophil ([1]; 500 mg/kg, 2 months, control 2.4 ± 0.4) of 1.1 ± 0.6% and a Reticulocytes ([1]; 500 mg/kg, 2 months, control 2.9 ± 0.2) of 3.4 ± 0.2%. For the same molecule, the Eosinophiles ([1]; 500 mg/kg, 2 months, control 4.4 + 1.2) was 4.1 ± 1.3%, the Erythrocytes ([1]; 500 mg/kg, 2 months, control 6.1 ± 0.1) was 6.5 ± 0.2 mln/mm^3 and the Hemoglobin ([1]; 500 mg/kg, 2 months, control 11.4 ± 0.2) was 12.1 ± 0.4 mmol/L. For the same molecule, the Leukocyte ([1]; 500 mg/kg, 2 months, control 19.1 ± 1.9) was 18.7 ± 1.7 thousand/mm^3, the Haematocrite ([1]; 500 mg/kg, 2 months, control 45.9 ± 1.8) was 52.5 ± 1.7% and the “Average volume of erythrocytes” value ([1]; 500 mg/kg, 2 months, control 74.6 + 1.9) was 80.1 ± 1.0 Mkm^3. The Thrombocytes ([1]; 500 mg/kg, 2 months, control 593 ± 14) was 639 ± 34, the “Activity of NOC: Mesencephalon” value ([2]; Control + Compound) was 2.62 ± 0.27 pmol/min/mg of protein and the “Activity of NOC: Hypothalamus” value ([2]; Control + Compound) was 5.61 ± 0.22 pmol/min/mg of protein. For the same molecule, the “Activity of NOC: Mesencephalon” value ([2]; Control + Morphine + compound) was 1.85 ± 0.30 pmol/min/mg of protein, the “Activity of NOC: Hypothalamus” value ([2]; Control + Morphine + compound) was 5.59 ± 0.22 pmol/min/mg of protein and the “γ-GTP in blood plasma, Ci” value ([3]; Control + compound) was 8.14 ± 2.64 mE/l. The “ALT in blood plasma, Ci” value ([3]; Control + compound) was 113.84 ± 2.0 mE/l, the “AST in blood plasma, Ci” value ([3]; Control + compound) was 174.82 ± 4.91 mE/l and the “γ-GTP in blood plasma, Ci” value ([3]; control + Morphine + Compound) was 10.32 ± 2.67 mE/l. The “ALT in blood plasma, Ci” value ([3]; control + Morphine + Compound) was 120.84 ± 5.20 mE/l and the “AST in blood plasma, Ci” value ([3]; control + Morphine + Compound) was 193.58 ± 14.18 mE/l.

Source: patent publication US8592421B2, “Cyclic bioisosters of purine system derivatives and a pharmaceutical composition based thereon” (priority 2003, dated 2013)
